# Test results: patent publication US20030017999A1, “Composition for the prevention and /or treatment of lipid metabolism disorders and allergic forms” (priority 2000, published 2003)
# Legend:
# [1] = system: Mitomycin-induced toxicity (mortality); experiment: Mortality induced by mitomycin C in mice; type: in vivo; conditions: for % animals surviving after 5 days / % animals surviving after 10 days / % animals surviving after 12 days (survival rate): mitomycin C 50 μg/mouse peritoneal for five days, alone or with isovaleryl L-carnitine 30 mg/mouse and/or β-glucan 10 mg/mouse; for % animals surviving after 5 days: day 5; for % animals surviving after 10 days: day 10; for % animals surviving after 12 days (survival rate): day 12
# Method: Results of Tests Regarding the Immunostimulant and Protective Effect exerted against Mitomycin-induced Toxicity by the Combination of Isovaleryl L-carnitine and β-glucan
# (§1) In these tests a first group of mice received peritoneal injections of 50 μg/mouse of mitomycin C for five consecutive days. In addition to mitomycin, a second group of animals were also injected with isovaleryl L-carnitine alone (30 mg/mouse), a third group with β-glucan alone (10 mg/mouse) and a fourth group with a combination of the two compounds for five consecutive days. On the fifth, tenth and twelfth day following the start of treatment, the number of leukocytes present in the blood and the mortality rates of the animals were evaluated in both treated and control animals.
# [2] = system: Mitomycin-induced toxicity (leukocyte depletion); experiment: Leukocyte depletion induced by mitomycin C in mice; type: in vivo; conditions: mitomycin C 50 μg/mouse peritoneal for five days, alone or with isovaleryl L-carnitine 30 mg/mouse and/or β-glucan 10 mg/mouse; for No. leukocytes after 5 days: day 5; for No. leukocytes after 10 days: day 10; for No. leukocytes after 12 days: day 12
# Method: as §1
# [3] = system: human macrophages from bronchoalveolar lavage fluid; experiment: Macrophage stimulation test (phagocytosis and intracellular killing); type: cell-based
# Method: After filtration, centrifuging and gradient separation on Ficoll, the viability of the cells was evaluated with the trypan blue test. Phagocytosis and intracellular killing were calculated according to the method described by […]. Bacterial, 98:996, 1969).
SMILES,% animals surviving after 5 days [1] [%],% animals surviving after 10 days [1] [%],% animals surviving after 12 days (survival rate) [1] [%],No. leukocytes after 5 days [2],No. leukocytes after 10 days [2],No. leukocytes after 12 days [2],increase in intracellular killing [3] [%],increase in phagocyte activity [3] [%],"mortality rate ([1]; mitomycin C alone 50 μg/mouse peritoneal for five days, twelfth day) [%]"
CC(C)CC(=O)O[C@H](CC(=O)[O-])C[N+](C)(C)C [Isovaleryl L-carnitine],50,30,15,"5,750 ± 310","4,900 ± 220","3,100 ± 310",15,10,–
CO[C@@]12[C@H](COC(N)=O)C3=C(C(=O)C(C)=C(N)C3=O)N1C[C@@H]1N[C@@H]12 [Mitomycin C],50,20,0,"5,400 ± 270","3,000 ± 220","1,100 ± 190",–,–,100
